Assay results published in patent US9439432B2, “Phenylisoxazoline-based compound having herbicidal activity and use thereof” (MOGHU RESEARCH CENTER LTD, priority 2011, dated 2016).

Key:
Assay type in all cases: in vivo
Poa annua [1] = test: Pre-emergence treatment, herbicidal efficacy on annual bluegrass; conditions: 4 weeks after spraying, scale 0 to 10
Protocol: (§1) A rectangular plastic pot having a surface area of 300 cm^2 was filled with sandy loam soil and mixed bed soil which were mixed at a ratio of 1:1, and then, barnyardrass (Echinochloa crusgalli), large crabgrass (Digitaria sanguinalis), blackgrass (Alopecurus myosuroides), and annual bluegrass (Poa annua), which are grass weeds, were seeded thereto. In a pot that was prepared as described above, seeds of corn, soybean, cotton, wheat, and rice were seeded. The pots were irrigated, and one day after, chemicals were sprayed thereto. The spraying was performed by using a track sprayer (R&D Sprayer, USA) equipped with a Teejet 8002 (Spraying Systems Co., USA) nozzle, and a spraying amount was adjusted at 300 L/ha. A spraying solution was prepared by dissolving test materials or references in acetone and adding the same amount of 0.2%(v/v) tween 20 aqueous solution thereto. Application rates were 500, 250, 125, and 62.5 g/ha. The pots were placed in a greenhouse in which during day, the temperature was maintained at a temperature of 25 to 30° C., and during night, the temperature was maintained at a temperature of 15 to 25° C., and the pots were periodically irrigated. Four weeks after the spraying the test materials or References, effects and phytotoxicity of the respective weeds and crops were evaluated in a scale of 0 to 10 (0: no effects, 10: complete death), and results thereof are shown in Table 4 below.

Digitaria sanguinalis [2] = test: Pre-emergence treatment, herbicidal efficacy on large crabgrass; conditions: 4 weeks after spraying, scale 0 to 10
Protocol: as §1

Soybean [3] = test: Post-emergence treatment, phytotoxicity to soybean; conditions: post-emergence (about 3 leaf stage), 1,000 g/ha, 4 weeks after spraying, scale 0 to 10 (0: no effects, 10: complete death)
Protocol: as §1
(§2) Pots containing crops and weeds were prepared in the same manner as in Example 7, and then, in the second week in which crops and weeds entered into about 3 leaf stage, the test materials and the references were sprayed thereto in the same manner as described above. The rates were 1,000, 500, 250, and 125 g/ha. Four weeks after the spraying of the test materials or the references, herbicidal efficacy and phytotoxicity to the respective weeds and crops were evaluated in a scale of 0 to 10 (0: no effects, 10: complete death).

Echinochloa crusgalli [4] = test: Post-emergence treatment, herbicidal efficacy on barnyardgrass; conditions: 4 weeks after spraying, scale 0 to 10
Protocol: as §1, §2

Cotton [5] = test: Pre-emergence treatment, phytotoxicity to cotton; conditions: 500 g/ha, 4 weeks after spraying, scale 0 to 10 (0: no effects, 10: complete death)
Protocol: as §1

Wheat [6] = test: Pre-emergence treatment, phytotoxicity to wheat; conditions: 500 g/ha, 4 weeks after spraying, scale 0 to 10 (0: no effects, 10: complete death)
Protocol: as §1

Digitaria sanguinalis [7] = test: Post-emergence treatment, herbicidal efficacy on large crabgrass; conditions: 4 weeks after spraying, scale 0 to 10
Protocol: as §1, §2

Rice [8] = test: Pre-emergence treatment, phytotoxicity to rice; conditions: 500 g/ha, 4 weeks after spraying, scale 0 to 10 (0: no effects, 10: complete death)
Protocol: as §1

Echinochloa crusgalli [9] = test: Pre-emergence treatment, herbicidal efficacy on barnyardgrass; conditions: 4 weeks after spraying
Protocol: as §1

Alopecurus myosuroides [10] = test: Pre-emergence treatment, herbicidal efficacy on blackgrass; conditions: 4 weeks after spraying, scale 0 to 10
Protocol: as §1

Cotton [11] = test: Post-emergence treatment, phytotoxicity to cotton; conditions: post-emergence (about 3 leaf stage), 1,000 g/ha, 4 weeks after spraying, scale 0 to 10 (0: no effects, 10: complete death)
Protocol: as §1, §2

Wheat [12] = test: Post-emergence treatment, phytotoxicity to wheat; conditions: post-emergence (about 3 leaf stage), 1,000 g/ha, 4 weeks after spraying, scale 0 to 10 (0: no effects, 10: complete death)
Protocol: as §1, §2

Rice [13] = test: Post-emergence treatment, phytotoxicity to rice; conditions: post-emergence (about 3 leaf stage), 1,000 g/ha, 4 weeks after spraying, scale 0 to 10 (0: no effects, 10: complete death)
Protocol: as §1, §2

Soybean [14] = test: Pre-emergence treatment, phytotoxicity to soybean; conditions: 500 g/ha, 4 weeks after spraying, scale 0 to 10 (0: no effects, 10: complete death)
Protocol: as §1

Poa annua [15] = test: Post-emergence treatment, herbicidal efficacy on annual bluegrass; conditions: 4 weeks after spraying, scale 0 to 10
Protocol: as §1, §2

Corn [16] = test: Post-emergence treatment, phytotoxicity to corn; conditions: post-emergence (about 3 leaf stage), 1,000 g/ha, 4 weeks after spraying, scale 0 to 10 (0: no effects, 10: complete death)
Protocol: as §1, §2

Corn [17] = test: Pre-emergence treatment, phytotoxicity to corn; conditions: 500 g/ha, 4 weeks after spraying, scale 0 to 10 (0: no effects, 10: complete death)
Protocol: as §1

Alopecurus myosuroides [18] = test: Post-emergence treatment, herbicidal efficacy on blackgrass; conditions: 4 weeks after spraying, scale 0 to 10
Protocol: as §1, §2

[19] = 500 g/ha, scale 0 to 10 (0: no effects, 10: complete death)

Structure (SMILES): Cc1ccccc1C1=NOC(C)(COCc2c(F)cccc2Cl)C1 (stereo not drawn) [Reference E]
- Herbicidal efficacy, Poa annua (Poa annua [1]; 62.5 g/ha): 2
- Herbicidal efficacy, Poa annua (Poa annua [1]; 125 g/ha): 5
- Herbicidal efficacy, Poa annua (Poa annua [1]; 250 g/ha): 9
- Herbicidal efficacy, Poa annua (Poa annua [1]; 500 g/ha): 10
- Herbicidal efficacy, Digitaria sanguinalis (Digitaria sanguinalis [2]; 62.5 g/ha): 0
- Herbicidal efficacy, Digitaria sanguinalis (Digitaria sanguinalis [2]; 125 g/ha): 5
- Herbicidal efficacy, Digitaria sanguinalis (Digitaria sanguinalis [2]; 250 g/ha): 9
- Herbicidal efficacy, Digitaria sanguinalis (Digitaria sanguinalis [2]; 500 g/ha): 10
- Phytotoxicity, Soybean (Soybean [3]): 1
- Herbicidal efficacy, Echinochloa crusgalli (Echinochloa crusgalli [4]; post-emergence, 125 g/ha): 0
- Herbicidal efficacy, Echinochloa crusgalli (Echinochloa crusgalli [4]; post-emergence, 250 g/ha): 2
- Herbicidal efficacy, Echinochloa crusgalli (Echinochloa crusgalli [4]; post-emergence, 500 g/ha): 5
- Herbicidal efficacy, Echinochloa crusgalli (Echinochloa crusgalli [4]; post-emergence, 1,000 g/ha): 6
- Phytotoxicity, Cotton (Cotton [5]): 0
- Phytotoxicity, Wheat (Wheat [6]): 0
- Herbicidal efficacy, Digitaria sanguinalis (Digitaria sanguinalis [7]; post-emergence, 125 g/ha): 0
- Herbicidal efficacy, Digitaria sanguinalis (Digitaria sanguinalis [7]; post-emergence, 250 g/ha): 1
- Herbicidal efficacy, Digitaria sanguinalis (Digitaria sanguinalis [7]; post-emergence, 500 g/ha): 6
- Herbicidal efficacy, Digitaria sanguinalis (Digitaria sanguinalis [7]; post-emergence, 1,000 g/ha): 7
- Phytotoxicity, Rice (Rice [8]): 0
- Herbicidal efficacy, Echinochloa crusgalli (Echinochloa crusgalli [9]; 62.5 g/ha, scale 0 to 10): 2
- Herbicidal efficacy, Echinochloa crusgalli (Echinochloa crusgalli [9]; 125 g/ha, scale 0 to 10): 5
- Herbicidal efficacy, Echinochloa crusgalli (Echinochloa crusgalli [9]; 250 g/ha, scale 0 to 10): 8
- Herbicidal efficacy, Echinochloa crusgalli (Echinochloa crusgalli [9]; [19]): 10
- Herbicidal efficacy, Alopecurus myosuroides (Alopecurus myosuroides [10]; 62.5 g/ha): 0
- Herbicidal efficacy, Alopecurus myosuroides (Alopecurus myosuroides [10]; 125 g/ha): 0
- Herbicidal efficacy, Alopecurus myosuroides (Alopecurus myosuroides [10]; 250 g/ha): 4
- Herbicidal efficacy, Alopecurus myosuroides (Alopecurus myosuroides [10]; 500 g/ha): 9
- Phytotoxicity, Cotton (Cotton [11]): 3
- Phytotoxicity, Wheat (Wheat [12]): 0
- Phytotoxicity, Rice (Rice [13]): 0
- Phytotoxicity, Soybean (Soybean [14]): 0
- Herbicidal efficacy, Poa annua (Poa annua [15]; post-emergence, 125 g/ha): 0
- Herbicidal efficacy, Poa annua (Poa annua [15]; post-emergence, 250 g/ha): 2
- Herbicidal efficacy, Poa annua (Poa annua [15]; post-emergence, 500 g/ha): 6
- Herbicidal efficacy, Poa annua (Poa annua [15]; post-emergence, 1,000 g/ha): 7
- Phytotoxicity, Corn (Corn [16]): 3
- Phytotoxicity, Corn (Corn [17]): 0
- Herbicidal efficacy, Alopecurus myosuroides (Alopecurus myosuroides [18]; post-emergence, 125 g/ha): 0
- Herbicidal efficacy, Alopecurus myosuroides (Alopecurus myosuroides [18]; post-emergence, 250 g/ha): 0
- Herbicidal efficacy, Alopecurus myosuroides (Alopecurus myosuroides [18]; post-emergence, 500 g/ha): 2
- Herbicidal efficacy, Alopecurus myosuroides (Alopecurus myosuroides [18]; post-emergence, 1,000 g/ha): 4

Structure (SMILES): Cc1ccccc1C1=NOC(C)(COCc2ccccc2)C1 (stereo not drawn) [Reference C]
- Herbicidal efficacy, Poa annua (Poa annua [1]; 62.5 g/ha): 2
- Herbicidal efficacy, Poa annua (Poa annua [1]; 125 g/ha): 5
- Herbicidal efficacy, Poa annua (Poa annua [1]; 250 g/ha): 9
- Herbicidal efficacy, Poa annua (Poa annua [1]; 500 g/ha): 9
- Herbicidal efficacy, Digitaria sanguinalis (Digitaria sanguinalis [2]; 62.5 g/ha): 0
- Herbicidal efficacy, Digitaria sanguinalis (Digitaria sanguinalis [2]; 125 g/ha): 6
- Herbicidal efficacy, Digitaria sanguinalis (Digitaria sanguinalis [2]; 250 g/ha): 9
- Herbicidal efficacy, Digitaria sanguinalis (Digitaria sanguinalis [2]; 500 g/ha): 10
- Phytotoxicity, Soybean (Soybean [3]): 0
- Herbicidal efficacy, Echinochloa crusgalli (Echinochloa crusgalli [4]; post-emergence, 125 g/ha): 1
- Herbicidal efficacy, Echinochloa crusgalli (Echinochloa crusgalli [4]; post-emergence, 250 g/ha): 3
- Herbicidal efficacy, Echinochloa crusgalli (Echinochloa crusgalli [4]; post-emergence, 500 g/ha): 4
- Herbicidal efficacy, Echinochloa crusgalli (Echinochloa crusgalli [4]; post-emergence, 1,000 g/ha): 7
- Phytotoxicity, Cotton (Cotton [5]): 1
- Phytotoxicity, Wheat (Wheat [6]): 0
- Herbicidal efficacy, Digitaria sanguinalis (Digitaria sanguinalis [7]; post-emergence, 125 g/ha): 1
- Herbicidal efficacy, Digitaria sanguinalis (Digitaria sanguinalis [7]; post-emergence, 250 g/ha): 3
- Herbicidal efficacy, Digitaria sanguinalis (Digitaria sanguinalis [7]; post-emergence, 500 g/ha): 4
- Herbicidal efficacy, Digitaria sanguinalis (Digitaria sanguinalis [7]; post-emergence, 1,000 g/ha): 7
- Phytotoxicity, Rice (Rice [8]): 0
- Herbicidal efficacy, Echinochloa crusgalli (Echinochloa crusgalli [9]; 62.5 g/ha, scale 0 to 10): 2
- Herbicidal efficacy, Echinochloa crusgalli (Echinochloa crusgalli [9]; 125 g/ha, scale 0 to 10): 5
- Herbicidal efficacy, Echinochloa crusgalli (Echinochloa crusgalli [9]; 250 g/ha, scale 0 to 10): 8
- Herbicidal efficacy, Echinochloa crusgalli (Echinochloa crusgalli [9]; [19]): 10
- Herbicidal efficacy, Alopecurus myosuroides (Alopecurus myosuroides [10]; 62.5 g/ha): 0
- Herbicidal efficacy, Alopecurus myosuroides (Alopecurus myosuroides [10]; 125 g/ha): 2
- Herbicidal efficacy, Alopecurus myosuroides (Alopecurus myosuroides [10]; 250 g/ha): 4
- Herbicidal efficacy, Alopecurus myosuroides (Alopecurus myosuroides [10]; 500 g/ha): 6
- Phytotoxicity, Cotton (Cotton [11]): 0
- Phytotoxicity, Wheat (Wheat [12]): 0
- Phytotoxicity, Rice (Rice [13]): 0
- Phytotoxicity, Soybean (Soybean [14]): 1
- Herbicidal efficacy, Poa annua (Poa annua [15]; post-emergence, 125 g/ha): 0
- Herbicidal efficacy, Poa annua (Poa annua [15]; post-emergence, 250 g/ha): 2
- Herbicidal efficacy, Poa annua (Poa annua [15]; post-emergence, 500 g/ha): 3
- Herbicidal efficacy, Poa annua (Poa annua [15]; post-emergence, 1,000 g/ha): 4
- Phytotoxicity, Corn (Corn [16]): 2
- Phytotoxicity, Corn (Corn [17]): 1
- Herbicidal efficacy, Alopecurus myosuroides (Alopecurus myosuroides [18]; post-emergence, 125 g/ha): 0
- Herbicidal efficacy, Alopecurus myosuroides (Alopecurus myosuroides [18]; post-emergence, 250 g/ha): 0
- Herbicidal efficacy, Alopecurus myosuroides (Alopecurus myosuroides [18]; post-emergence, 500 g/ha): 3
- Herbicidal efficacy, Alopecurus myosuroides (Alopecurus myosuroides [18]; post-emergence, 1,000 g/ha): 5
